Holding throughout (experiment): relative viability (nuclei count vs DMSO), 5 days (fraction); higher = more cells survive
Compound in test [1]: CCc1c2c(nc3ccc(OC(=O)N4CCC(N5CCCCC5)CC4)cc13)-c1cc3c(c(=O)n1C2)COC(=O)[C@]3(O)CC [Irinotecan] + Cc1nc(Nc2ncc(C(=O)Nc3c(C)cccc3Cl)s2)cc(N2CCN(CCO)CC2)n1 [Dasatinib] (partner 0.075 µM)
In short, it runs like this:
(§1)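 Lung cancer cell lines in 1536-well plates were dosed by pin tool the day after seeding, either with one drug alone or with a fixed anchor-drug dose plus five library-drug doses (not always all listed) in √10 steps. After 5 days, cells were fixed and their nuclei stained in one step (final 0.05% Triton X-100, 1% formaldehyde, 1 ug/ml Hoechst), then counted on 4× images. Relative viability is the nuclei count in treated wells divided by that in vehicle wells. Values are medians of duplicate plates.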

Compound in test [2]: CCc1c2c(nc3ccc(OC(=O)N4CCC(N5CCCCC5)CC4)cc13)-c1cc3c(c(=O)n1C2)COC(=O)[C@]3(O)CC [Irinotecan] + CC(C)C[C@H](NC(=O)[C@H](Cc1ccccc1)NC(=O)c1cnccn1)B(O)O [Bortezomib] (partner 0.002 µM)
In short, it runs like this: as §1

Compound in test [3]: Cn1cc(-c2cnc3ccc4ccc(CS(=O)(=O)NCc5ccccn5)cc4c(=O)c3c2)cn1 [MK-8033] + N=C(N)NC(=N)NCCc1ccccc1 [Phenformin] (partner 250 µM)
In short, it runs like this:
as §1

Compound in test [4]: CC[C@@H](C)CNCC(=O)N1CCC2=C([C@@H]1COC3=CC=CC(=C3)C)C=CS2 [RU-SKI 43] + O=C(CCCCCCC(=O)Nc1ccccc1)NO [Vorinostat] (partner 1 µM)
In short, it runs like this:
as §1

This is an account of results in the supplement of paper PMC10307832.

In the case of UMC-11, the relative viability in test [1] (first compound 0.6325 µM) worked out at 0.422; in test [1] (first compound 2 µM), 0.372; in test [1] (first compound 6.325 µM) it was 0.232; in test [1] (first compound 20 µM) it was 0.104; in test [2] (first compound 0.6325 µM) it was 0.595; in test [2] (first compound 2 µM) it was 0.519. For the same cell line, the relative viability turned out to be 0.184 in test [2] (first compound 6.325 µM); 0.139 in test [2] (first compound 20 µM); 0.323 in test [3] (first compound 0.02 µM); 0.258 in test [3] (first compound 0.06325 µM); 0.312 in test [3] (first compound 0.2 µM); 0.266 in test [3] (first compound 2 µM). The relative viability is 0.386 in test [4] (first compound 0.1 µM); 0.328 in test [4] (first compound 0.3162 µM); 0.473 in test [4] (first compound 1 µM); 0.407 in test [4] (first compound 3.162 µM); 0.352 in test [4] (first compound 10 µM).
